Laboratory results reported in US9416095B2, “Salts, crystals, complexes, and derivatives of threonine diacetic acid, a process to prepare threonine diacetic acid, and the use thereof” (Akzo Nobel Chemicals International B.V., priority 2013, dated 2016).

Key:
Type in all cases: physicochemical
[1] = Potentiometric titration with FeCl3, iron total sequestering value (Fe-TSV)
From the text: Potentiometric titration of THDA with FeCl3 at pH 3-4 and 11.5 gave the iron total sequestering values (Fe-TSV) of 37.8 and 27.8%, respectively. […] All Fe(III) is bound by THDA at pH 3-4.

[2] = Cyclisation to the 6-oxomorpholine ring-closed form in DMSO-d6/TFA, monitored by 1H NMR; conditions: 30% aqueous disodium salt in DMSO-d6/TFA 80:20 w/w, ambient temperature
Description: A 30% aqueous solution of disodium threonine diacetate (129 mg) was mixed well with a DMSO-d6/TFA solution (2761 mg, 80:20 w/w) and changes in the obtained mixture were monitored by ^1H NMR at ambient temperature. The steady state was reached after 40 minutes with a conversion of 90% of THDA to cyclic-THDA.
A 30% aqueous solution of disodium serine diacetate (136 mg) was mixed well with a DMSO-d6/TFA solution (2911 mg, 80:20 w/w) and changes in the obtained mixture were monitored by ^1H NMR at ambient temperature. The steady state was reached after 100 minutes with a conversion of 43% of SerDA to cyclic-SerDA. The above experiments support that THDA can be used in applications that relate to dissolving carbonate or sequestering iron, such as use in the oil field (e.g. dissolving CaCO3 and controlling iron in subterranean treatment), use in a feed, food or micronutrient composition (e.g. complexing iron and calcium for delivery to growing substrates), use in detergents and water treatments (e.g. sequestering calcium from water to soften water and sequestering iron present in stains), and many more uses.

[3] = Dissolving insoluble calcium salts (CaCO3 stirred with THDA.Na3 solution, calcium in filtrate by ICP)
Description: A mixture of CaCO3 (1.26 g, […]), 37.8 wt % THDA.Na3 in water (15 g, 18.8 mM), and water (45 g) was vigorously stirred for 6 h. The experiment was performed at room temperature and at 50° C. Samples (1 ml) were taken from the mixture every 0.5 h and filtered through a 0.45 μm filter. The concentration of calcium in the filtered samples was determined using the ICP method.

Row | SMILES | iron total sequestering value (Fe-TSV) ([1]; pH 3-4) [%] | iron total sequestering value (Fe-TSV) ([1]; pH 11.5) [%] | conversion to cyclic form at steady state [2] [%] | time to reach steady state of cyclisation [2] [min] | speed of CaCO3 dissolution at 50° C. versus room temperature ([3]; 50° C.) | dissolution of CaCO3 ([3]; CaCO3 12.6 mM, THDA.Na3 18.8 mM in water, stirred 6 h, room temperature and 50° C.)
1 | C[C@@H](O)[C@@H](C(=O)O)N(CC(=O)O)CC(=O)O [THDA, threonine-N,N-diacetic acid] | 37.8 | 27.8 | 90 | 40 | – | –
2 | C[C@@H](O)[C@@H](C(=O)O)N(CC(=O)O)CC(=O)O.[Na+].[Na+].[Na+] [THDA.Na3, Trisodium Threonine Diacetate] | – | – | – | – | noticeably faster | significant amount
3 | O=C(O)CN(CC(=O)O)[C@@H](CO)C(=O)O [SerDA, serine-N,N-diacetic acid, reference compound] | – | – | 43 | 100 | – | –
